Experimental data from patent US20100284925A1, “Small Molecule Intervention for Obesity” (priority 2006, published 2010).
“Also recorded” adds a separate entry of the source.

Experiments:
C/EBPα = C/EBPα response element luciferase reporter in L1 preadipocytes; assay type: cell-based; conditions: prieurianin 2 μM
Method: (§1) FIG. 18. Effects of prieurianin on C/EBPα and β and PPARγ mediated transcription in adipogenesis. Response elements corresponding to C/EBPα and β and PPARγ are cloned into the pGL3 basic luciferase reporter plasmid. L1 preadipocytes were contransfected with the reporter plasmid either in the presence or the absence of the corresponding transcription factors cloned into expression vector, followed by treatment with 2 μM of prieurianin. Cells were harvested for luciferase assay 15-24 hrs later. Results are means±S.E. of triplicate experiments.

NFκB = assay: NFκB-response element luciferase reporter in L1 preadipocytes; assay type: cell-based; conditions: prieurianin 2 μM
C/EBPβ = C/EBPβ response element luciferase reporter in L1 preadipocytes; assay type: cell-based; conditions: prieurianin 2 μM
Method: as §1

[1] = Body weight, food intake, serum parameters and adiposity in leptin-deficient ob/ob mice; assay type: in vivo
Method: FIG. 4. Effects of prieurianin on blood insulin, glucose and NEFA levels. Normal and ob/ob mice were treated with 5 mg/kg of prieurianin and serum samples were then collected for (FIG. 4A) insulin; (FIG. 4B) glucose; and (FIG. 4C) non-esterified fatty acid (NEFA) profiling. Results are means of three animals per group for each treatment. Blue column, normal C57BL/6J; and red column, leptin-deficient ob/ob mice.
FIG. 5. Effects of prieurianin on adiposity in ob/ob mice. The leptin-deficient ob/ob mice were treated with 5 mg/kg of prieurianin and subcutaneous and visceral adipose tissues were excised and weighed. Results are means of three to five animals per group as indicated (n).
Prieurianin was administered intraperitoneally to 12-14 week-old normal C57BL/6J mice and the genetically leptin-deficient ob/ob mice (2 or 5 mg/kg) twice a week for two weeks. Controls received equivolume injections of drug vehicle. Body weight and food intake were measured every three days, and blood samples were collected at the end of the experiment.
Obesity contributes to hypertension, high serum cholesterol, low HDL cholesterol, and hyperglycemia, thus potentially leading to higher risk of cardiovascular disease. Abdominal obesity especially correlates with metabolic risk factors. The leptin-deficient ob/ob mice are hyperlipidemic, and hyperglycemic. To test whether prieurianin altered the metabolic or endocrinological parameters in addition to appetite, the serum lipid profile, insulin and glucose levels were measured.
To further examine the effects of prieurianin on the adiposity of the normal C57BL/6J and the ob/ob mice, we measured their visceral and subcutaneous body fat.

PPARγ = PPARγ response element luciferase reporter in L1 preadipocytes; assay type: cell-based; conditions: prieurianin 2 μM
Method: as §1

[2] = Cytotoxicity in cell culture studies; assay type: cell-based; conditions: data not shown

C=C1[C@@H]([C@@]2(C)[C@@H](OC(C)=O)CC(=O)O[C@](C)(COC(C)=O)[C@@H]2C(=O)OC)[C@@H](OC=O)[C@H](OC(=O)[C@H](O)[C@H](C)CC)[C@@]2(C)[C@H](c3ccoc3)CC(=O)[C@]12O [prieurianin]
transactivation potential of C/EBPα (C/EBPα): inhibits the transactivation potential | NFκB-response element mediated transcription (NFκB): induces transactivation from the NFκB-response element mediated transcription | transactivation potential of C/EBPβ (C/EBPβ): inhibits the transactivation potential | serum PLTP activity [1]: decrease in serum PLTP activity | NEFA levels ([1]; 5 mg/kg): only a modest decrease in NEFA levels | hyperglycemia (glucose level) ([1]; 5 mg/kg): reversed to levels comparable to those of normal controls | insulin levels ([1]; 5 mg/kg): reduce by approximately three to four-fold | subcutaneous and visceral adipose tissues ([1]; 5 mg/kg): significantly reduced both the subcutaneous and visceral adipose tissues | decrease in food intake ([1]; 5 mg/kg group, relative to untreated or vehicle treated controls): ≤ 50% | reduction of total body fat ([1]; 5 mg/kg, vs untreated and vehicle-treated controls): greater than 50% | reduction in total body weight ([1]; 2 or 5 mg/kg i.p. twice a week, after two weeks): up to 10% | total cholesterol level ([1]; serum): significantly lower | triglyceride levels ([1]; serum): no significant changes | HDL levels ([1]; vs untreated and vehicle-treated): approximately two-fold lower | transactivation potential of PPARγ (PPARγ): inhibits the transactivation potential | cytotoxicity [2]: relatively non-cytotoxic compared with topotecan; also recorded: relatively non-cytotoxic compared to topotecan
